Test results: PubChem BioAssay AID248 (DTP/NCI, 2004)
Where “and” joins values, the source holds several entries; their conditions need not be identical. Equal entries are not always repeated. Toxic doses and inconclusive results are not listed. No stated cut-off is given here; in the data, active means T/C of 150% or more; inactive means T/C below 125%.

System: L1210 leukemia ip in BDF1 mice, survival T/C
Experiment: NCI In Vivo Anticancer Drug Screen. Data for tumor model L1210 Leukemia (intraperitoneal) in B6D2F1 (BDF1) mice
Details: endpoint: mean survival time, higher = longer survival
How it was run: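 Read-out is survival time, reported as the treated-group measurement over the vehicle-control measurement.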

[1] = dose: 100.0 mg/kg/injection, schedule: Q01DX009 (ip), vehicle: Klucel (hydroxypropylcellulose) (HPC)
[2] = dose: 200.0 mg/kg/injection, schedule: Q01DX009 (ip), vehicle: Klucel (hydroxypropylcellulose) (HPC)
[3] = dose: 400.0 mg/kg/injection, schedule: Q01DX009 (ip), vehicle: Klucel (hydroxypropylcellulose) (HPC)
[4] = dose: 100.0 mg/kg/injection, schedule: Q01DX001 (ip), vehicle: carboxymethylcellulose (CMC)
[5] = dose: 200.0 mg/kg/injection, schedule: Q01DX001 (ip), vehicle: carboxymethylcellulose (CMC)
[6] = dose: 400.0 mg/kg/injection, schedule: Q01DX001 (ip), vehicle: carboxymethylcellulose (CMC)
[7] = dose: 100.0 mg/kg/injection, schedule: Q01DX001 (ip), vehicle: saline
[8] = dose: 200.0 mg/kg/injection, schedule: Q01DX001 (ip), vehicle: saline
[9] = dose: 400.0 mg/kg/injection, schedule: Q01DX001 (ip), vehicle: saline
[10] = dose: 75.0 mg/kg/injection, schedule: Q01DX001 (ip), vehicle: saline
[11] = dose: 150.0 mg/kg/injection, schedule: Q01DX001 (ip), vehicle: saline
[12] = dose: 100.0 mg/kg/injection, schedule: Q04DX003 (ip), vehicle: saline
[13] = dose: 200.0 mg/kg/injection, schedule: Q04DX003 (ip), vehicle: saline
[14] = dose: 400.0 mg/kg/injection, schedule: Q04DX003 (ip), vehicle: saline
[15] = dose: 25.0 mg/kg/injection, schedule: Q04DX003 (ip), vehicle: saline
[16] = dose: 25.0 mg/kg/injection, schedule: Q01DX009 (ip), vehicle: saline with Tween-80
[17] = dose: 50.0 mg/kg/injection, schedule: Q01DX009 (ip), vehicle: saline with Tween-80

Measured: T/C

CCOC(=O)c1c(N)sc(C)c1C
inactive: dose: 100.0 mg/kg/injection, schedule: Q04DX003 (ip), vehicle: Klucel (hydroxypropylcellulose) (HPC) 102 % of control | dose: 200.0 mg/kg/injection, schedule: Q04DX003 (ip), vehicle: Klucel (hydroxypropylcellulose) (HPC) 94 % of control | dose: 400.0 mg/kg/injection, schedule: Q04DX003 (ip), vehicle: Klucel (hydroxypropylcellulose) (HPC) 97 % of control

NS(=O)(=O)c1ccc(N=Cc2cc(Cl)cc(Cl)c2O)cc1
inactive: [1] 101 % of control | [2] 106 % of control | [3] 106 % of control

CCOP(=S)(OCC)OCCN(CC)CC
inactive: dose: 5.0 mg/kg/injection, schedule: Q01DX001 (ip), vehicle: saline 101 % of control | dose: 10.0 mg/kg/injection, schedule: Q01DX001 (ip), vehicle: saline 105 % of control | dose: 20.0 mg/kg/injection, schedule: Q01DX001 (ip), vehicle: saline 105 % of control

CS(=O)(=O)OC1C2CCC(C2=C(c2ccccc2)c2ccccc2)C1OS(C)(=O)=O (stereo not given)
inactive: dose: 75.0 mg/kg/injection, schedule: Q01DX001 (ip), vehicle: carboxymethylcellulose (CMC) 93 % of control | dose: 150.0 mg/kg/injection, schedule: Q01DX001 (ip), vehicle: carboxymethylcellulose (CMC) 101 % of control | dose: 300.0 mg/kg/injection, schedule: Q01DX001 (ip), vehicle: carboxymethylcellulose (CMC) 91 % of control

O=c1oc2c([N+](=O)[O-])cc([N+](=O)[O-])cc2c2ccccc12
inactive: dose: 50.0 mg/kg/injection, schedule: Q01DX001 (ip), vehicle: carboxymethylcellulose (CMC) 105 % of control | [4] 94 % of control | [5] 100 % of control | [6] 92 % of control

c1cc2c(cc1C1=NNC(c3ccc4c(c3)OCO4)=NN1)OCO2
inactive: dose: 100.0 mg/kg/injection, schedule: Q04DX003 (ip), vehicle: saline with Tween-80 104 % of control | dose: 200.0 mg/kg/injection, schedule: Q04DX003 (ip), vehicle: saline with Tween-80 98 % of control | dose: 400.0 mg/kg/injection, schedule: Q04DX003 (ip), vehicle: saline with Tween-80 96 % of control

CC(C)(N)COC(=O)c1ccccc1C(=O)O
inactive: [7] 91 % of control | [8] 96 % of control | [9] 94 % of control

O=C1CCc2cc(Br)ccc2O1
inactive: dose: 50.0 mg/kg/injection, schedule: Q01DX001 (ip), vehicle: saline 92 % of control | [7] 103 % of control | [8] 100 % of control | [9] 100 % of control

O=C(Nc1cccc(C(=O)Nc2cc(C3=NCCN3)cc(C3=NCCN3)c2)c1)Nc1cccc(C(=O)Nc2cc(C3=NCCN3)cc(C3=NCCN3)c2)c1
inactive: dose: 15.0 mg/kg/injection, schedule: Q01DX Z (ip), vehicle: methylcellulose (MC) 109 % of control | dose: 30.0 mg/kg/injection, schedule: Q01DX Z (ip), vehicle: methylcellulose (MC) 105 % of control | dose: 60.0 mg/kg/injection, schedule: Q01DX Z (ip), vehicle: methylcellulose (MC) 96 % of control

Cc1ccc(-n2cnnn2)cc1
inactive: [7] 103 % of control | [8] 104 % of control | [9] 103 % of control

CCC(CC)NNC(CC)CC
inactive: dose: 75.0 mg/kg/injection, schedule: Q01DX001 (ip), vehicle: other 105 % of control | [10] 98 % of control | dose: 150.0 mg/kg/injection, schedule: Q01DX001 (ip), vehicle: other 98 % of control | [11] 96 % of control | dose: 300.0 mg/kg/injection, schedule: Q01DX001 (ip), vehicle: other 118 % of control

NC(=O)c1ccccc1NC(=O)Nc1c(Cl)cccc1Cl
inactive: [1] 94 % of control | [2] 106 % of control | [3] 120 % of control

NC(=O)N/N=C(\CBr)c1ccc([N+](=O)[O-])cc1
inactive: [12] 96 % of control | [13] 89 % of control | [14] 91 % of control

COc1cccc(C23CCCCC2=NCC3)c1 (stereo not given)
inactive: [15] 100 % of control | dose: 50.0 mg/kg/injection, schedule: Q04DX003 (ip), vehicle: saline 107 % of control | [12] 89 % of control

CC/C=C/N1CCCCC1
inactive: [16] 97 % of control | [17] 94 % of control | dose: 100.0 mg/kg/injection, schedule: Q01DX009 (ip), vehicle: saline with Tween-80 113 % of control and 91 % of control

O=C(Nc1ccccc1)c1cccnc1
inactive: [4] 94 % of control | [5] 91 % of control | [6] 96 % of control

COc1ccc(/C=C/c2ccc3ccccc3[n+]2C)c(OC)c1OC
inactive: dose: 5.0 mg/kg/injection, schedule: Q01DX009 (oral), vehicle: carboxymethylcellulose (CMC) 104 % of control | dose: 5.0 mg/kg/injection, schedule: Q04DX003 (ip), vehicle: saline with Tween-80 106 % of control | dose: 10.0 mg/kg/injection, schedule: Q01DX009 (oral), vehicle: carboxymethylcellulose (CMC) 98 % of control | dose: 10.0 mg/kg/injection, schedule: Q04DX003 (ip), vehicle: saline with Tween-80 114 % of control | dose: 20.0 mg/kg/injection, schedule: Q01DX009 (oral), vehicle: carboxymethylcellulose (CMC) 106 % of control | dose: 20.0 mg/kg/injection, schedule: Q04DX003 (ip), vehicle: saline with Tween-80 108 % of control | dose: 40.0 mg/kg/injection, schedule: Q01DX009 (oral), vehicle: carboxymethylcellulose (CMC) 109 % of control | dose: 80.0 mg/kg/injection, schedule: Q01DX009 (oral), vehicle: carboxymethylcellulose (CMC) 97 % of control

NNc1ccc2c(O)cc(S(=O)(=O)O)cc2c1
inactive: [7] 98 % of control | [12] 103 % of control | [8] 104 % of control | [13] 95 % of control | [9] 107 % of control | [14] 101 % of control

COc1ccc(C=Nc2ccccc2C(=O)O)cc1
inactive: dose: 100.0 mg/kg/injection, schedule: Q01DX001 (ip), vehicle: saline with Tween-80 108 % of control | dose: 200.0 mg/kg/injection, schedule: Q01DX001 (ip), vehicle: saline with Tween-80 105 % of control | dose: 400.0 mg/kg/injection, schedule: Q01DX001 (ip), vehicle: saline with Tween-80 93 % of control

O=C1NC(=O)C(Cc2ccccc2)(Cc2ccccc2)C(=O)N1
inactive: [4] 103 % of control | [5] 95 % of control | [6] 95 % of control

CCN(CC)C(=S)SCc1ccccc1OC(=O)NC
inactive: [10] 101 % of control | [11] 98 % of control

Cc1ccc(C2C(C(=O)c3ccccc3)N2Cc2ccccc2)cc1 (stereo not given)
inactive: dose: 100.0 mg/kg/injection, schedule: Q01DX001 (ip), vehicle: Klucel (hydroxypropylcellulose) (HPC) 98 % of control | dose: 200.0 mg/kg/injection, schedule: Q01DX001 (ip), vehicle: Klucel (hydroxypropylcellulose) (HPC) 95 % of control

c1ccc2c(c1)C1=NCCN1c1ccccc1-2
inactive: dose: 10.0 mg/kg/injection, schedule: Q01DX009 (ip), vehicle: Klucel (hydroxypropylcellulose) (HPC) 101 % of control | dose: 10.0 mg/kg/injection, schedule: Q04DX003 (ip), vehicle: Klucel (hydroxypropylcellulose) (HPC) 114 % of control | dose: 20.0 mg/kg/injection, schedule: Q01DX009 (ip), vehicle: Klucel (hydroxypropylcellulose) (HPC) 111 % of control | dose: 20.0 mg/kg/injection, schedule: Q04DX003 (ip), vehicle: Klucel (hydroxypropylcellulose) (HPC) 122 % of control | dose: 40.0 mg/kg/injection, schedule: Q01DX009 (ip), vehicle: Klucel (hydroxypropylcellulose) (HPC) 105 % of control | dose: 40.0 mg/kg/injection, schedule: Q04DX003 (ip), vehicle: Klucel (hydroxypropylcellulose) (HPC) 112 % of control

C=C(Cl)CNCC
inactive: dose: 12.5 mg/kg/injection, schedule: Q01DX009 (ip), vehicle: saline with Tween-80 91 % of control | [16] 97 % of control | [17] 119 % of control

COc1ccc(NC(=O)/C=N/O)c(Cl)c1
inactive: [5] 94 % of control | [6] 90 % of control

O=C1NC(=O)C2C3CCC(C3)C12 (stereo not given)
inactive: dose: 6.25 mg/kg/injection, schedule: Q04DX003 (ip), vehicle: saline 105 % of control | dose: 12.5 mg/kg/injection, schedule: Q04DX003 (ip), vehicle: saline 102 % of control | [15] 102 % of control
